Test results: paper PMC12692147, “Surface Acoustic Waves-Based Molecular Recognition of a Collagen Receptor on Human Erythrocytes” (International Journal of Molecular Sciences, 2025)
“Also recorded” adds a separate entry of the source.

Tests used:
[1] = molecular target: αVβ3 integrin (Homo sapiens) (UniProt P06756); details: cited from earlier work
[2] = molecular target: integrins in an immobilized erythrocyte ghost membrane; experiment: SAW biosensor binding of disintegrins to immobilized erythrocyte ghosts; design: species or system human; details: for Kd / kon / koff: SAW (sam-X), erythrocyte ghosts immobilized via hydrophobic interactions (CH3-SAM), running buffer PBS pH 7.4, 25 °C, 20 μL/min, 1:1 binding model, experiments in triplicate; for Kd: KD = koff/kon; for kon: slope of kobs vs c, kobs of five channels averaged; for koff: y-intercept of kobs vs c; for KD (range in words): SAW, erythrocyte ghost membrane; for KD (range in words) / phase response on erythrocyte ghosts vs. unspecific binding to GUVs: result in words; for specificity of binding to erythrocyte ghost membrane: authors' conclusion in words; for phase response on erythrocyte ghosts vs. unspecific binding to GUVs: titration with increasing concentrations of disintegrins, GUVs (bovine brain phospholipids) on a parallel channel
Protocol: To detect disintegrin/erythrocyte ghost binding at the molecular level, a surface acoustic wave (SAW) biosensor was used (Figure 1). The machines of SAW instruments use a detection technology resembling a highly sensitive “weight detector”. Binding processes are measured by real mass changes on the surface. Basically, the sensor is a chip, whereby the surface is excited to oscillate acoustically. Acoustic waves are generated in the piezoelectric material and propagate laterally. Response to changes in the surface-bound material and configuration is achieved through a proprietary method that produces a modified oscillation. […] The phase of the wave is shifted on mass changes. A change in amplitude indicates viscoelastic and conformational characteristics. Both effects can be differentiated and detected independently for interaction analysis.
A similar amount of erythrocyte ghosts and GUVs were successfully immobilized on (1) positively poly-L-lysin charged 2D CM-dextran, (2) EDC/NHS-activated, negatively charged 2D CM-dextran, and (3) hydrophobic–CH3-SAM. The positively charged disintegrins were repelled from all charged surfaces; therefore, immobilization via hydrophobic interactions was chosen for the main core of experiments (Figure 2). Disintegrins were diluted in PBS to achieve similar immobilization levels; in a pre-experiment, all ligands were diluted 1:3, and then dilutions were adjusted. Experiments were performed in triplicate, starting with obtustatin, then echistatin, then vice versa. The baseline was stable; at immobilization of GUVs on a chip, a 14° phase shift was detected vs. 13.1° for the erythrocyte ghosts. In this set of experiments, GUVs formed from the phospholipid fraction of the bovine brain were used as a negative control for erythrocyte ghosts.
Based on the 1:1 binding model, a KD value was calculated depending on the fit model applied for the interaction of disintegrins with integrins in the erythrocyte ghosts. Data were obtained from sensor signals after the administration of increasing concentrations of disintegrins using the monomolecular growth model. The observed rate constants (kobs) were determined from the rising phase of the sensor response curves for each analyte concentration and plotted against the corresponding disintegrin concentrations. A linear regression was performed on the dataset according to the equationkobs = kon × c + koff where kon represents the association rate constant, koff is the dissociation rate constant, and c is the concentration of the injected analyte (see Figure 3C,D).
Erythrocyte membranes were obtained by the method of Dodge, Mitchell & Hanahan, as described. To obtain erythrocyte ghosts, after the last wash the RBC pellet was mixed with nine volumes of ice-cold lysis buffer (5 mM sodium phosphate) and stirred for 15 min at 0 °C. Subsequently, the unsealed erythrocyte ghosts were pelleted by centrifugation at 37,000× g for 10 min at 0 °C. After the centrifugation the ghosts were washed with ice-cold lysis buffer until residual hemoglobin was not visible. The RBC ghosts were suspended in about 0.5 volume of PBS and were kept frozen at −30 °C until use.
Biosensor investigations were performed using a sam®-X system Surface Acoustic Wave biosensor supplied by SAW instruments (GmbH, Bonn, Germany), as described before. Gold-coated sensors were incubated in a solution of 11-mercaptoundecanoic acid (10 mM) in ethanol abs. forming a self-assembled monolayer by binding of the sulfur headgroups to the gold surface ([…]). The carboxyl groups were activated with 200 mM N-ethyl-N-(dimethylaminopropyl)-carbodiimide (EDC) and 50 mM N-hydroxysuccinimide (NHS) to bind disintegrins and/or vesicles. An excess of activated unreacted NHS esters was blocked by 1 M ethanolamine (pH 8.5). Running buffer was PBS containing 2.7 mM potassium chloride and 137 mM sodium chloride (pH 7.4 at 25 °C); flow rate was 40/20 μL/min. […]

αVβ3 integrin = details: cited from earlier work
Text: (§1) Integrin-mediated binding is important for the metastatic dissemination of different types of cancer cells. […] Obtustatin is one of the shortest disintegrins yet described, containing 41 amino acids. It has a similar pattern of cysteines to the other disintegrin echistatin but with a KTS motif rather than a classic RGD in its active site. […] Echistatin is a 49-amino-acid peptide belonging to the disintegrins family derived from Echis carinatus snake venom. […] Obtustatin, comprising only 41 amino acid residues, is one of the shortest disintegrins characterized to date. It was purified from the venom of the Subcaucasian subspecies of the Levantine viper—Macrovipera ...

[3] = tested on: platelet aggregation and cellular adhesion; details: background statement; ref [14] (preceding sentence); cited from earlier work
Text: Disintegrins are the large family of anti-adhesive proteins found in viper venom, whose structural and functional complexity contrasts with their small molecular size. Echistatin is a 49-amino-acid peptide belonging to the disintegrins family derived from Echis carinatus snake venom. […] Obtustatin, comprising only 41 amino acid residues, is one of the shortest disintegrins characterized to date. It was purified from the venom of the Subcaucasian subspecies of the Levantine viper—Macrovipera ...

α1β1 integrin = details: cited from earlier work
Text: as §1

[4] = stated in abstract without reference

Sequence of UniProt P06756 (P06756 31-1048, chain 1 of 2): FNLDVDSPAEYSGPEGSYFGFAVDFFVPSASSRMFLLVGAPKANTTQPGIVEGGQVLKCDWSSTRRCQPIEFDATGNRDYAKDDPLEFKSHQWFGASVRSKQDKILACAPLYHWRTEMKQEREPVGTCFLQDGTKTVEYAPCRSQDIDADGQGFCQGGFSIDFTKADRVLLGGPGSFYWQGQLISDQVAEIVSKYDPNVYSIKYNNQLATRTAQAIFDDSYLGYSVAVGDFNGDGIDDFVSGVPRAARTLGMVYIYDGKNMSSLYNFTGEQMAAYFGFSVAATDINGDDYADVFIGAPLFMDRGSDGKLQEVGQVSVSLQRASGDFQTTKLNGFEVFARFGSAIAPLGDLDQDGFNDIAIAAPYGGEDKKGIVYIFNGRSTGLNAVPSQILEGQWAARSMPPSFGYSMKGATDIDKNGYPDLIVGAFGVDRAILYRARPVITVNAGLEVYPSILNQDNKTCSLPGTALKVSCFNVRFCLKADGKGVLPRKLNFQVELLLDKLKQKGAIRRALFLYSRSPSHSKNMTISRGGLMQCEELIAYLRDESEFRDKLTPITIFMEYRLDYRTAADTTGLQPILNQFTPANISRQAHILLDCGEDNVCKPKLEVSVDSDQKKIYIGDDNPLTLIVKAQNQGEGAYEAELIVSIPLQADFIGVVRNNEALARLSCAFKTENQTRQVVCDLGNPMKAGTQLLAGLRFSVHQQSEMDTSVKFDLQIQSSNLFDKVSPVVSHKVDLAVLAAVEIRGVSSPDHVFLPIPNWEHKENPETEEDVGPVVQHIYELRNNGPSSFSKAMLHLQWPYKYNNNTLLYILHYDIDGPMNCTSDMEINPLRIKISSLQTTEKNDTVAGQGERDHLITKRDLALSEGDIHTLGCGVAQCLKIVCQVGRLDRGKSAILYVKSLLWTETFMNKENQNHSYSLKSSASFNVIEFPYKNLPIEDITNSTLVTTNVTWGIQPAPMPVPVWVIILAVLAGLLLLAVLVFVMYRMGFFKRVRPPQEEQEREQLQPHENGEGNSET
Sequence of UniProt P06756 (P05106 27-788, chain 2 of 2, further chain): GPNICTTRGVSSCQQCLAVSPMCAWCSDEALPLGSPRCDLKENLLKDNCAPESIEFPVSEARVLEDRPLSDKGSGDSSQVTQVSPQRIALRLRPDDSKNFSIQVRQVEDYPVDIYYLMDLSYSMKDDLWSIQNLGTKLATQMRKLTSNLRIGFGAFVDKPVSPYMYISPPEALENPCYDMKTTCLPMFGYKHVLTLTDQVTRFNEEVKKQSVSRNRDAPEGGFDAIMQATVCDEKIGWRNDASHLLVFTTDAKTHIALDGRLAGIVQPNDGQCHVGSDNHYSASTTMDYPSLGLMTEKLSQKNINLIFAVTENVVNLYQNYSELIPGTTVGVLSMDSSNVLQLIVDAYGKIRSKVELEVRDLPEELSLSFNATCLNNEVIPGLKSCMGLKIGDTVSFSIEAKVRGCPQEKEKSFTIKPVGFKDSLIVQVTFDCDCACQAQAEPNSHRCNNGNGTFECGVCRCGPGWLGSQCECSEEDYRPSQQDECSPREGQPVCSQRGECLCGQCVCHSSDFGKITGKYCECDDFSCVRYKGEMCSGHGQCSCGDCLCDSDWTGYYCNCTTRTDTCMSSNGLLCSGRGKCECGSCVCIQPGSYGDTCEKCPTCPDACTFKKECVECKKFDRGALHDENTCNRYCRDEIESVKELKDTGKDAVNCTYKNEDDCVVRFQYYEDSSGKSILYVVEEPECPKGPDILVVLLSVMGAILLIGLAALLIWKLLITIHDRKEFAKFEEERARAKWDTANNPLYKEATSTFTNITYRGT

Row | Substance | Ki [1] [nM] | Kd [2] [nM] | kon [2] | koff [2] | KD (range in words) [2] | specificity of binding to erythrocyte ghost membrane [2] | phase response on erythrocyte ghosts vs. unspecific binding to GUVs [2] | αVβ3 integrin antagonism (αVβ3 integrin; ref [20],[21],[22]) | αvβ3 integrin inhibition (αVβ3 integrin; [4]) | inhibition of platelet aggregation and cellular adhesion [3] | α1β1 integrin blockade, selectivity (α1β1 integrin; ref [17],[18],[19]) | α1β1 integrin inhibition (α1β1 integrin; [4])
1 | echistatin (from UniProt P17347) | 0.27 |  |  |  |  |  |  |  |  |  |  | 
2 | ECESGPCCRNCKFLKEGTICKR—ARGD-DMDDYCNGKTCDCPRNPHKGPAT (disulfide) [Echistatin] |  | 2100 | (4.22 ± 0.002) × 10^2 M^−1 s^−1 | (8.85 ± 0.03) × 10^−4 s^−1 | low micromolar range | could be evidence of some unspecific binding | remarkably lower | potent irreversible αVβ3 integrin antagonist | potent, irreversible, and selective inhibitors | highly effective inhibitor of platelet aggregation and cellular adhesion |  | 
3 | CTTGPCCRQCKLKPAGTTCW-----KTS--LTSHYCTGKSCDCPLYPG (disulfide) [Obtustatin] |  | 232 | (5.34 ± 0.9) × 10^3 M^−1 s^−1 | (1.238 ± 0.8) × 10^−3 s^−1 | mid-nanomolar range | specific molecular recognition for both disintegrins, but the higher response for obtustatin; also recorded: specific binding of the obtustatin with the erythrocyte ghost membrane in the 1:1 binding mode | the highest difference is observable |  |  |  | block α1β1 integrin in a highly selective manner | potent, irreversible, and selective inhibitors
